In article PMC3299684, “Two Odorant-Binding Proteins Mediate the Behavioural Response of Aphids to the Alarm Pheromone (E)-ß-farnesene and Structural Analogues” (PLoS ONE, 2012):

Key:
[1] = biological target: T1, OBP7 (Acyrthosiphon pisum, UniProt A0A8R1TDD0); assay: competitive displacement of 1-NPN fluorescence; type: binding; settings: 50 mM Tris-HCl pH 7.4, 25°C; protein and 1-NPN 2 µM; KD calculated from IC50
T1 construct: gene 100160457; primers encode N-terminus (M)YLSEA, C-terminus EFLPL
T1 sequence (A0A8R1TDD0 31-155): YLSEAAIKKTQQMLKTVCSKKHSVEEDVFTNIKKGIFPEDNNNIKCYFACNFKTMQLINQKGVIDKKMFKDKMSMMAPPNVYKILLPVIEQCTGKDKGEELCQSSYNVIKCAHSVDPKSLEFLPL

[2] = biological target: T2, OBP3 (Acyrthosiphon pisum, UniProt A0A8R1XHB4); assay: competitive displacement of 1-NPN fluorescence; type: binding; settings: 50 mM Tris-HCl pH 7.4, 25°C; protein and 1-NPN 2 µM; KD calculated from IC50
T2 construct: construct not detailed here
T2 sequence (A0A8R1XHB4 24-141 limits assumed): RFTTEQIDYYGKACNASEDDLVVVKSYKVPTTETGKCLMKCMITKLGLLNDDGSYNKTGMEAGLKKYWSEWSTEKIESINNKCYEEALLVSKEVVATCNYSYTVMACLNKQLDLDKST

[3] = biological target: T3, OBP6 (Acyrthosiphon pisum, UniProt A0A8R1TDN2); assay: biochemical; set-up: competitive fluorescence binding assay, displacement of 1-NPN (2 uM) from recombinant OBP (2 uM), pH 7.4
T3 sequence (A0A8R1TDN2 1-160): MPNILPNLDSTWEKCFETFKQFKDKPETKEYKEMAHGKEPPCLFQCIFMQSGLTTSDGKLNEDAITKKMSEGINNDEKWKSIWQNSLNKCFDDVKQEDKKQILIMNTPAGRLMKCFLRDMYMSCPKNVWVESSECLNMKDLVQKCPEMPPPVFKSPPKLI
Experimental: The probe was excited at 337 nm and emission spectra were recorded between 380 and 450 nm. […] For determining binding constants, the intensity values corresponding to the maximum of fluorescence emission were plotted against free ligand concentrations. The curves were drawn using the Prism software, that allowed calculation of the dissociation constants and the stoichiometry of binding, assuming that the protein was 100% active. […] Supplementary file pone.0032759.s002.doc: Table S1 Binding properties of the ligands utilised in ligand binding assays and behaviour experiments. For each protein, [IC]50 reports the concentration of ligand that halves the initial fluorescence intensity (both protein and 1-NPN were used at the concentration of 2 µM). Dissociation constants are calculated as reported in the Materials and Methods section. The structures of “CAU” ligands are reported in Table 1, those of “LIG” chemicals in Figure 3. Blank cells indicate values of [IC]50 higher than 30 µM. For these compounds dissociation constants have not been calculated. (DOC) Click here for additional data file.

[4] = biological target: T1, OBP7; assay: biochemical; set-up: competitive fluorescence binding assay, displacement of 1-NPN (2 uM) from recombinant OBP (2 uM), pH 7.4; settings: for IC50: read-out: [IC]50 OBP7
Experimental: (§1) The probe was excited at 337 nm and emission spectra were recorded between 380 and 450 nm. […] For determining binding constants, the intensity values corresponding to the maximum of fluorescence emission were plotted against free ligand concentrations. The curves were drawn using the Prism software, that allowed calculation of the dissociation constants and the stoichiometry of binding, assuming that the protein was 100% active. […] Supplementary file pone.0032759.s002.doc: Table S1 Binding properties of the ligands utilised in ligand binding assays and behaviour experiments. For each protein, [IC]50 reports the concentration of ligand that halves the initial fluorescence intensity (both protein and 1-NPN were used at the concentration of 2 µM). Dissociation constants are calculated as reported in the Materials and Methods section. The structures of “CAU” ligands are reported in Table 1, those of “LIG” chemicals in Figure 3. […] (DOC) Click here for additional data file.

[5] = biological target: T2, OBP3; set-up: competitive fluorescence binding assay, displacement of 1-NPN (2 uM) from recombinant OBP (2 uM), pH 7.4; settings: binder
Experimental: as §1

For C=CC(=C)CC/C=C(\C)CCC=C(C)C [(E)-ß-farnesene], the KD [1] was “including (E)-ß-farnesene and structurally similar molecules, bind only OBP3 and/or OBP7” and the KD [2] was “including (E)-ß-farnesene and structurally similar molecules, bind only OBP3 and/or OBP7”.

CC(C)CCCC(C)CCOC(=O)c1ccccc1 (centres unmarked) [LIG-4] was tested, and the Kd [3] was 13.9 µM, the IC50 ([3]; read-out: [IC]50 OBP6) was 16.1 µM and the IC50 [4] was 2.5 µM.

In the case of CC(=O)OC/C=C(\C)CCC=C(C)C [LIG-7], the Kd [4] is reported as 9.3 µM and the IC50 [4] is reported as 18 µM.

CC(C)CCOC(=O)CCCc1ccccc1 [LIG-8] gave a Kd [5] of 10.7 µM, an IC50 ([5]; read-out: [IC]50 OBP3) of 14 µM and a Kd [4] of 2.8 µM. The IC50 [4] was 5.5 µM.
